In patent US8334261B2, “Osteopenia animal model” (Oriental Yeast Co., Ltd., priority 2006, dated 2012):

What was measured:
[1] = tested on: 7-week-old male C57BL/6N mice; assay: Evaluation of male mice; format: in vivo, mouse
Description: GST-RANKL was intraperitoneally administered 3 times to groups of 7-week-old male C57BL/6N mice at 1 mg/kg every 24 hours. The femur and serum were collected from each mouse 1.5 hours after the 3rd administration and compared with those of the PBS administration group. Regarding bone metabolism markers, TRAP-5b, calcium (Ca), and alkaline phosphatase (ALP) in the serum were measured. Each femur was subjected to bone density measurement with pQCT and image analysis with micro CT.

[2] = tested on: 7-week-old female C57BL/6N mice; assay: Evaluation of a bone mass increase with PTH (GST-RANKL, ovariectomy); format: in vivo, mouse; settings: for femur bone density decrease vs PBS+Sham: GST-RANKL+Sham
Description: GST-RANKL was administered twice to groups of 7-week-old female C57BL/6N mice at 1 mg/kg every 24 hours. Ovariectomy was performed 24 hours after the 2nd administration. In addition, parathyroid hormone (PTH) was subcutaneously administered thereto at 160 μg/kg from 24 hours after the ovariectomy for 10 consecutive days. Further, a group obtained by PBS administration and sham operation (Sham) was designated as a control group for comparison. The serum markers and the femur bone density were measured.

mice = assay: Double-dose administration of GST-RANKL at 0.5, 1 and 2 mg/kg; format: in vivo, mouse; settings: 2 mg/kg compared with 0.5 mg/kg and 1 mg/kg
[3] = tested on: 7-week-old female C57BL/6 mice; assay: Administration of GST-RANKL for 7 consecutive days; format: in vivo, mouse
Description: GST-RANKL was intraperitoneally administered to groups of 7-week-old female C57BL/6 mice at 2 mg/kg/day for 7 consecutive days. The serum and femur were collected from each mouse 1.5 hours after the 7th administration. The serum and femur obtained from each mouse were subjected to measurement of serum markers and bone density measurement with pQCT, respectively.

[4] = tested on: 7-week-old female C57BL/6N mice; assay: RANKL administration test (213, 426, 852 nmol GST-RANKL); format: in vivo, mouse
Description: GST-RANKL was separately administered 3 times via an intraperitoneal route to groups of 7-week-old female C57BL/6N mice (10 individuals each) at doses of 213 nmol, 426 nmol, and 852 nmol every 24 hours. Exsanguination was performed 1.5 hours after the 3rd administration. A group to which PBS was administered in the same manner as above was used as a control group for comparison. 213 nmol, 426 nmol and 852 nmol of GST-RANKL correspond to 10 μg, 20 μg and 40 μg, respectively.
The exsanguinated blood was subjected to measurement of serum bone resorption parameters (calcium, CTx, TRAP-5b) and serum osteogenesis parameters (osteocalcin and alkaline phosphatase (ALP)). Calcium was measured by the OCPC method (WAKO, 272-21801). CTx (Nordic Bioscience Diagnostics), TRAP-5b (IDS Ltd, SB-TR103), and osteocalcin (Biomedical Technologies Inc.) were measured by ELISA. ALP was measured by the Bessey-Lowry method (WAKO, 274-04401).
The femur and the tibia were collected from each exsanguinated mouse. Regarding the femur, the cancellous bone was subjected to bone density measurement with the use of pQCT at points 0.6 mm, 0.8 mm, and 1.0 mm from the distal growth plate on the proximal side. Measurement values were compared with those for a control group by the Dunnett method for testing.

[5] = tested on: 8-week-old female C57BL/6N mice; assay: Administration of GST-RANKL to mouse calvaria; format: in vivo; settings: 3 days
Description: GST-RANKL was administered to the calvaria of groups of 8-week-old female C57BL/6N mice for 3 days. The femur was collected from each mouse on day 5 day after the initiation of experimentation. The femur bone density was evaluated with pQCT. Experimentation was conducted with the use of the following three experimental groups: the experimental group 1 subjected to administration of GST-RANKL at 0.5 mg/kg twice daily; the experimental group 2 subjected to administration of GST-RANKL at 1 mg/kg once daily; and the PBS group serving as a control group for comparison and being subjected to PBS administration. Cancellous bone density measurement was carried out at points 0.6 mm, 0.8 mm, and 1.0 mm from the distal growth plate on the proximal side of the collected femur with pQCT.

[6] = tested on: 7-week-old female C57BL/6N mice; assay: Single-dose administration of GST-RANKL; format: in vivo, mouse; settings: for femur bone density decrease vs control: single dose
Description: The bone resorption markers and the osteogenesis markers in the serum were measured 12, 24, and 48 hours thereafter. Blood sampling was carried out before and immediately after GST-RANKL administration and 2, 4, 8, 12, 24, 48, and 72 hours after administration, followed by measurement of the serum human RANKL concentration by ELISA. In addition, 24 and 48 hours after administration, the femur bone density was measured with pQCT.

## GST-RANKL: fused protein of Glutathione S-transferase with human RANKL residues 140-317, expressed in Escherichia coli, 47.0 kDa
[1]; 1 mg/kg i.p. 3 times
  serum ALP concentration: no changes
  serum TRAP-5b concentration increase: approximately 65%
[1]; 1 mg/kg i.p. 3 times, no significant difference
  serum Ca concentration increase vs PBS group: 7%
[1]; 0.6 mm
  femur bone density decrease: approximately 6%
[1]; 0.8 mm
  femur bone density decrease: approximately 10%
[1]; 1.0 mm
  femur bone density decrease: approximately 15%
[2]; GST-RANKL+OVX group
  femur bone density vs PBS+Sham: No bone density decrease was observed
[2]; 0.6 mm
  femur bone density decrease vs PBS+Sham: approximately 17%
[2]; 0.8 mm
  femur bone density decrease vs PBS+Sham: ~15%
[2]; 1.0 mm
  femur bone density decrease vs PBS+Sham: ~18%
[2]; every GST-RANKL administration group
  serum Ca concentration: no changes
[2]; every GST-RANKL administration group, 1 mg/kg twice
  serum ALP concentration decrease: approximately 24%
mice
  bone mass decreasing effects: promoted
[3]; 2 mg/kg/day 7 days, 0.6 mm
  femur bone density decrease vs control: approximately 21%
[3]; 2 mg/kg/day 7 days, 0.8 mm
  femur bone density decrease vs control: approximately 32%
[3]; 2 mg/kg/day 7 days, 1.0 mm
  femur bone density decrease vs control: approximately 47%
[3]; 2 mg/kg/day 7 days, no significant difference
  serum TRAP-5b concentration increase: approximately 30%
[3]; 2 mg/kg/day 7 days, p<0.02
  serum ALP concentration increase: approximately 30%
[3]; 2 mg/kg/day i.p. 7 consecutive days, no significant difference
  serum Ca concentration increase: approximately 20%
[4]; 213 nmol
  serum CTx concentration: No significant increases
  serum TRAP-5b concentration: No significant increases
[4]; 213 nmol i.p. 3 times, p<0.05
  serum calcium concentration: significantly increased
[4]; 213 nmol, 0.6 mm
  femur bone density decrease (pQCT): 11%
[4]; 213 nmol, 0.8 mm
  femur bone density decrease (pQCT): 23%
[4]; 213 nmol, 1.0 mm
  femur bone density decrease (pQCT): 23%
[4]; 426 nmol, 0.6 mm
  femur bone density decrease (pQCT): 19%
[4]; 426 nmol, 0.8 mm
  femur bone density decrease (pQCT): 29%
[4]; 426 nmol, 1.0 mm
  femur bone density decrease (pQCT): 31%
[4]; 426 nmol, p<0.01
  serum CTx concentration: significant increases
  serum TRAP-5b concentration: significant increases
  serum calcium concentration: obviously increased
[4]; 852 nmol, 0.6 mm
  femur bone density decrease (pQCT): 30%
[4]; 852 nmol, 0.8 mm
  femur bone density decrease (pQCT): 42%
[4]; 852 nmol, 1.0 mm
  femur bone density decrease (pQCT): 44%
[4]; 852 nmol, p<0.01
  serum CTx concentration: significant increases
  serum TRAP-5b concentration: significant increases
  serum calcium concentration: obviously increased
[4]; 213 to 852 nmol
  image analysis with micro CT: dose-dependent decreases in the bone density
[5]; experimental group 1: 0.5 mg/kg twice daily to the calvarium, at the measurement points
  femur cancellous bone density vs PBS group: bone density decrease was observed
[5]; experimental group 2: 1 mg/kg once daily to the calvarium, at 0.8 mm and 1.0 mm
  femur cancellous bone density vs PBS group: bone density decrease was observed
[6]; single dose 1 mg/kg
  serum ALP concentration decrease: approximately 30%
[6]; single dose 1 mg/kg i.p.
  serum Ca concentration: no changes
[6]; single dose 1 mg/kg i.p., 24 hours later
  serum human RANKL concentration: undetectable
[6]; single dose 1 mg/kg i.p., ELISA
  time of peak serum human RANKL concentration after administration: 4 h
[6]; single dose 1 mg/kg, 12 hours after administration
  serum TRAP-5b concentration, fold as high as control: approximately 1.7 fold
[6]; 24 hours, 0.6 mm
  femur bone density decrease vs control: approximately 4%
[6]; 24 hours, 0.8 mm
  femur bone density decrease vs control: approximately 9%
[6]; 24 hours, 1.0 mm
  femur bone density decrease vs control: approximately 12%
[6]; 48 hours, 0.6 mm
  femur bone density decrease vs control: approximately 5%
[6]; 48 hours, 0.8 mm
  femur bone density decrease vs control: approximately 9%
[6]; 48 hours, 1.0 mm
  femur bone density decrease vs control: approximately 15%
